From PubChem BioAssay (NCI)
Where “and” joins values, the source holds several entries; their conditions need not be identical. Equal values may be shown once.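 Exposure lasted 48 hours, with cells grown in 96-well plates and compounds tested at five concentrations. The concentration for 50% growth inhibition is given as GI50. The concentration for full growth arrest is given as TGI.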

Key:
Assay in all cases: growth of human tumour cells (NCI), 48 h; in the data active = GI50 below about 0.43 µM; inactive = the rest
HCC-2998 colon = system: HCC-2998 colon
CCRF-CEM leukemia = system: CCRF-CEM leukemia
UO-31 renal = system: UO-31 renal
SNB-75 CNS = system: SNB-75 CNS
A549 NSCLC = system: A549 NSCLC
SK-MEL-28 melanoma = system: SK-MEL-28 melanoma
UACC-62 melanoma = system: UACC-62 melanoma
OVCAR-5 ovarian = system: OVCAR-5 ovarian
KM12 colon = system: KM12 colon
NCI-H522 lung = system: NCI-H522 lung

CCCCN(CCCC)C(=O)/C(CC(=O)c1cccc2ccccc12)=N\NC(=O)c1cc2ccccc2cc1O
80.5 µM: TGI (OVCAR-5 ovarian)
> 100 µM: TGI (SK-MEL-28 melanoma) | TGI (KM12 colon)
43.8 µM: TGI (HCC-2998 colon)
23.3 µM: TGI (UACC-62 melanoma)
25.3 µM: TGI (CCRF-CEM leukemia)
64.8 µM: TGI (A549 NSCLC)
37.3 µM: TGI (UO-31 renal)
92.7 µM: TGI (SNB-75 CNS)

O=C(/C=C/c1ccccc1)CC(=O)CCC(=O)Nc1ccc(Cl)cc1
> 100 µM: TGI (HCC-2998 colon) | TGI (CCRF-CEM leukemia) | TGI (UO-31 renal) | TGI (A549 NSCLC) | TGI (NCI-H522 lung) | TGI (UACC-62 melanoma) | TGI (OVCAR-5 ovarian) | TGI (KM12 colon)

CCOC(=O)C(NC(=O)c1nc[nH]c1[N+](=O)[O-])C(C)C (stereo not drawn)
> 100 µM: TGI (HCC-2998 colon) | TGI (CCRF-CEM leukemia) | TGI (UO-31 renal) | TGI (SNB-75 CNS) | TGI (A549 NSCLC) | TGI (SK-MEL-28 melanoma) | TGI (NCI-H522 lung) | TGI (UACC-62 melanoma) | TGI (KM12 colon)

CC(=O)/C(=C/c1ccccc1F)C(=O)c1ccccc1
45.1 µM: TGI (HCC-2998 colon)
> 100 µM: TGI (UO-31 renal) | TGI (SNB-75 CNS) | TGI (A549 NSCLC) | TGI (SK-MEL-28 melanoma) | TGI (NCI-H522 lung) | TGI (UACC-62 melanoma) | TGI (OVCAR-5 ovarian) | TGI (KM12 colon)

Oc1ccccc1-c1nn(CNc2ccccc2Cl)c(=S)o1
55.4 µM: TGI (CCRF-CEM leukemia)
> 100 µM: TGI (UO-31 renal) | TGI (A549 NSCLC) | TGI (NCI-H522 lung) | TGI (UACC-62 melanoma) | TGI (OVCAR-5 ovarian) | TGI (KM12 colon)
inactive: GI50 (CCRF-CEM leukemia) 20.1 µM | GI50 (UO-31 renal) > 100 µM | GI50 (A549 NSCLC) > 100 µM | GI50 (NCI-H522 lung) > 100 µM | GI50 (UACC-62 melanoma) 71.7 µM | GI50 (OVCAR-5 ovarian) 37.2 µM | GI50 (KM12 colon) > 100 µM

CC(C)(C)c1cc(C=C(C#N)C#N)cc(C(C)(C)C)c1O
43.6 µM: TGI (SK-MEL-28 melanoma)
2.86 µM and 1.61 µM: TGI (NCI-H522 lung)
active: GI50 (SNB-75 CNS) 0.194 µM | GI50 (NCI-H522 lung) 0.219 µM | GI50 (OVCAR-5 ovarian) 0.402 µM
inactive: GI50 (CCRF-CEM leukemia) 0.609 µM | GI50 (SK-MEL-28 melanoma) 0.778 µM
8.29 µM and 19.3 µM: TGI (UACC-62 melanoma)
0.891 µM and 3.7 µM: TGI (UO-31 renal)
24.3 µM and 71.4 µM: TGI (A549 NSCLC)
18.4 µM: TGI (HCC-2998 colon)

C[C@H]1CCCC(O)C(O)[C@@H]2C[C@H](O[Si](C)(C)C(C)(C)C)C[C@H]2[C@H](O[Si](C)(C)C(C)(C)C)C(O)C(O)C(=O)O1 (stereo partly drawn)
50.3 µM: TGI (HCC-2998 colon)
> 100 µM: TGI (CCRF-CEM leukemia) | TGI (UO-31 renal) | TGI (A549 NSCLC) | TGI (SK-MEL-28 melanoma) | TGI (OVCAR-5 ovarian) | TGI (KM12 colon)
18.1 µM: TGI (SNB-75 CNS)
48.8 µM: TGI (UACC-62 melanoma)
inactive: GI50 (HCC-2998 colon) 17.5 µM | GI50 (CCRF-CEM leukemia) 28 µM | GI50 (UO-31 renal) 42.2 µM | GI50 (SNB-75 CNS) 4.3 µM | GI50 (A549 NSCLC) 31.5 µM | GI50 (SK-MEL-28 melanoma) 47.9 µM | GI50 (UACC-62 melanoma) 18.5 µM | GI50 (OVCAR-5 ovarian) 31.8 µM | GI50 (KM12 colon) 37.5 µM

N#CNC(N)=Nc1ccc(Cl)cc1
> 100 µM: TGI (HCC-2998 colon) | TGI (UO-31 renal) | TGI (SNB-75 CNS) | TGI (A549 NSCLC) | TGI (SK-MEL-28 melanoma) | TGI (NCI-H522 lung) | TGI (UACC-62 melanoma) | TGI (OVCAR-5 ovarian) | TGI (KM12 colon)

CCC(=O)Nc1nc2c(ncn2C2OC(COC(=O)CC)C(OC(=O)CC)C2OC(=O)CC)c(=O)[nH]1 (stereo not drawn)
> 100 µM: TGI (HCC-2998 colon) | TGI (UO-31 renal) | TGI (SNB-75 CNS) | TGI (A549 NSCLC) | TGI (SK-MEL-28 melanoma) | TGI (NCI-H522 lung) | TGI (UACC-62 melanoma) | TGI (OVCAR-5 ovarian) | TGI (KM12 colon)

C/C(=N\NC(=O)CC#N)c1c(O)cc(C)oc1=O
> 100 µM: TGI (HCC-2998 colon) | TGI (CCRF-CEM leukemia) | TGI (UO-31 renal) | TGI (SNB-75 CNS) | TGI (A549 NSCLC) | TGI (SK-MEL-28 melanoma) | TGI (UACC-62 melanoma) | TGI (KM12 colon)

Cc1c(C(=O)O)oc2ccc([N+](=O)[O-])cc12
> 100 µM: TGI (HCC-2998 colon) | TGI (CCRF-CEM leukemia) | TGI (UO-31 renal) | TGI (A549 NSCLC) | TGI (SK-MEL-28 melanoma) | TGI (NCI-H522 lung) | TGI (UACC-62 melanoma) | TGI (OVCAR-5 ovarian) | TGI (KM12 colon)

N/N=C1\C(=O)N(CCc2ccccc2)C(=O)C1C(=O)NCCc1ccccc1 (stereo not drawn)
> 100 µM: TGI (CCRF-CEM leukemia) | TGI (UO-31 renal) | TGI (SNB-75 CNS) | TGI (A549 NSCLC) | TGI (SK-MEL-28 melanoma) | TGI (NCI-H522 lung) | TGI (UACC-62 melanoma) | TGI (KM12 colon)

Cc1ccccc1NC(=O)C1C(=O)N(c2ccccc2C)C(=O)/C1=N\NC(N)=S (stereo not drawn)
> 100 µM: TGI (CCRF-CEM leukemia) | TGI (UO-31 renal) | TGI (SNB-75 CNS) | TGI (A549 NSCLC) | TGI (SK-MEL-28 melanoma) | TGI (NCI-H522 lung) | TGI (UACC-62 melanoma) | TGI (KM12 colon)

CCCCCCCCCCCCCCCC[N+]1(C)CCOCC1
3.02 µM: TGI (CCRF-CEM leukemia)
7.69 µM: TGI (SK-MEL-28 melanoma)
3.83 µM: TGI (UACC-62 melanoma)
2.46 µM: TGI (SNB-75 CNS)
12.2 µM: TGI (A549 NSCLC)
2.89 µM: TGI (OVCAR-5 ovarian)
2.75 µM: TGI (HCC-2998 colon)
31.6 µM: TGI (UO-31 renal)
5.07 µM: TGI (NCI-H522 lung)
inactive: GI50 (HCC-2998 colon) 1.21 µM | GI50 (CCRF-CEM leukemia) 1.09 µM | GI50 (UO-31 renal) 13.4 µM | GI50 (SNB-75 CNS) 0.868 µM | GI50 (A549 NSCLC) 2.79 µM | GI50 (SK-MEL-28 melanoma) 2.42 µM | GI50 (NCI-H522 lung) 2.09 µM | GI50 (UACC-62 melanoma) 1.61 µM | GI50 (OVCAR-5 ovarian) 1.14 µM

Cc1c2ccccc2cc2ccc3oc([N+](=O)[O-])cc3c12
> 100 µM: TGI (HCC-2998 colon) | TGI (CCRF-CEM leukemia) | TGI (UO-31 renal) | TGI (SNB-75 CNS) | TGI (A549 NSCLC) | TGI (UACC-62 melanoma) | TGI (OVCAR-5 ovarian) | TGI (KM12 colon)

COC(=O)C1(C(=O)OC)CC(=O)c2cc3c(cc2-c2c(cc(OC)c(OC)c2OC)C1)OCO3
> 211 µM: TGI (HCC-2998 colon) | TGI (CCRF-CEM leukemia) | TGI (A549 NSCLC) | TGI (SK-MEL-28 melanoma) | TGI (NCI-H522 lung) | TGI (UACC-62 melanoma) | TGI (OVCAR-5 ovarian) | TGI (KM12 colon)

NC(=S)NN/C=C(\C=Nc1ccccc1)[N+](=O)[O-]
> 100 µM: TGI (CCRF-CEM leukemia) | TGI (SNB-75 CNS) | TGI (A549 NSCLC) | TGI (SK-MEL-28 melanoma) | TGI (NCI-H522 lung) | TGI (UACC-62 melanoma) | TGI (OVCAR-5 ovarian)

O=C(O)c1ccccc1/C=N/N=C1c2ccccc2-c2ccccc21
> 100 µM: TGI (UO-31 renal) | TGI (A549 NSCLC) | TGI (SK-MEL-28 melanoma) | TGI (NCI-H522 lung) | TGI (UACC-62 melanoma) | TGI (OVCAR-5 ovarian)
78.7 µM: TGI (CCRF-CEM leukemia)
58.7 µM: TGI (KM12 colon)

CSC1=Nc2ccccc2N=C(c2ccc(Cl)cc2)C1
> 100 µM: TGI (CCRF-CEM leukemia) | TGI (UO-31 renal) | TGI (A549 NSCLC) | TGI (SK-MEL-28 melanoma) | TGI (NCI-H522 lung) | TGI (UACC-62 melanoma) | TGI (OVCAR-5 ovarian) | TGI (KM12 colon)

Cn1c2c(c3ccccc31)CCN(CCN1CCN(c3cccc(Cl)c3)CC1)C2=O
> 100 µM: TGI (CCRF-CEM leukemia) | TGI (UO-31 renal) | TGI (A549 NSCLC) | TGI (SK-MEL-28 melanoma) | TGI (NCI-H522 lung) | TGI (UACC-62 melanoma)

CC(=O)c1ccc(O)c(CN(C2CCCCC2)C2CCCCC2)c1O
> 100 µM: TGI (UO-31 renal) | TGI (SNB-75 CNS) | TGI (A549 NSCLC) | TGI (SK-MEL-28 melanoma) | TGI (NCI-H522 lung) | TGI (UACC-62 melanoma) | TGI (OVCAR-5 ovarian) | TGI (KM12 colon)
1.88 µM: TGI (CCRF-CEM leukemia)

CCNC(=O)COc1ccc(Cl)cc1Cl
> 100 µM: TGI (UO-31 renal) | TGI (SNB-75 CNS) | TGI (A549 NSCLC) | TGI (SK-MEL-28 melanoma) | TGI (NCI-H522 lung) | TGI (OVCAR-5 ovarian) | TGI (KM12 colon)
